Patent US6593352B2, “Substituted anthranilic acids, their use as a medicament or diagnostic, and medicament comprising them, and a pharmaceutical combination preparation containing a sodium/hydrogen exchange (NHE) blocker” (Aventis Pharma Deutschland GmbH, priority 2000, dated 2003)

Test system: isolated beating rat heart
Assay: ischemia/reperfusion model (isolated beating rat heart)
Details: combination of the NBC blocker with the NHE inhibitor cariporide mesilate

Row | Compound | cardioprotective action
1 | O=C(O)c1cc(S(=O)(=O)NCc2ccc(F)c(Cl)c2)c(Cl)cc1NCCCCc1ccccc1 [Example 1, 4-Chloro-5-(3-chloro-4-fluorobenzylsulfamoyl)-2-phenylbutylaminobenzoic acid] | greater than additive cardioprotective action

Target: T1, heart form of human NBC1 (Homo sapiens, UniProt Q9Y6R1)
T1 construct: expressed in transfected cells
T1 sequence (Q9Y6R1 1-1079): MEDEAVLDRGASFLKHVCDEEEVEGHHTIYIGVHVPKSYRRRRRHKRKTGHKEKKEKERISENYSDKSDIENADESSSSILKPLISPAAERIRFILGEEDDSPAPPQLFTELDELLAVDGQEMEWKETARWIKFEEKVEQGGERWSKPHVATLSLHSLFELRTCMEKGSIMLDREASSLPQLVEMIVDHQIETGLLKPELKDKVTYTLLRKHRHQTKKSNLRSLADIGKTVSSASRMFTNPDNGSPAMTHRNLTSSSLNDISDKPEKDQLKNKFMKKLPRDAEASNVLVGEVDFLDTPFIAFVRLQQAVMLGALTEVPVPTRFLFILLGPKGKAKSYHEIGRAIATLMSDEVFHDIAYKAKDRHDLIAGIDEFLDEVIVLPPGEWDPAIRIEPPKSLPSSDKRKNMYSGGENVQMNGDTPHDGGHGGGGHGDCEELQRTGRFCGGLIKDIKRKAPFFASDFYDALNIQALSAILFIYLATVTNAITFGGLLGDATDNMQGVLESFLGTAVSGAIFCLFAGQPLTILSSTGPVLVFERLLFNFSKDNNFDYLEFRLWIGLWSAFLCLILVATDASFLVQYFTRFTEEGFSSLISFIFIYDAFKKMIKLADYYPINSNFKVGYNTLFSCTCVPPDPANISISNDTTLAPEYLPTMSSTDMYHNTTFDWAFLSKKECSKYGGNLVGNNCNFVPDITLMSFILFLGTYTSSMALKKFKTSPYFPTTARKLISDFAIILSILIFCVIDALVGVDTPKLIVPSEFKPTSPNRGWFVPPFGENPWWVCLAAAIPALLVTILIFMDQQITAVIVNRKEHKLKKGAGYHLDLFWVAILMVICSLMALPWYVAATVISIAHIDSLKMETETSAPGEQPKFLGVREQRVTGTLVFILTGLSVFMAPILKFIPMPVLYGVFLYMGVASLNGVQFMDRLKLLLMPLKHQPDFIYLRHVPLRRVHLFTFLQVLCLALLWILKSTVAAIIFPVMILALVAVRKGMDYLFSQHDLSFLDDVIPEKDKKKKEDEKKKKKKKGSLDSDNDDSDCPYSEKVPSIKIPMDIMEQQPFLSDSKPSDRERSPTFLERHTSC
Assay: NBC activity measurement (pHi recovery after acid load, BCECF, FLIPR)
Type: cell-based
Details: residual NBC activity at inhibitor concentration of 10 μM; CHO K1 cells transfected with heart form of human NBC1; NHE and NCBE blocked; duplicate determinations
Description: Firstly, the heart form of human NBC1 was cloned by RT-PCR. After confirmation of the sequence, the corresponding cDNAs were cloned into the vector pcDNA3.1+, which contains the neo gene as a selection marker for eukaryotic cells. For the amplification of the human heart form of NBC1, human heart mRNA (Clontech, Palo Alto, Calif., USA) was amplified using primers which cover the area in which the heart form differs from the kidney form. The heart form in this case differs only at the 5′ end of the coding sequence. The area coding for the first 41 amino acids of the kidney form is replaced in the heart form by an area coding for 85 amino acids (positions 118-370 from Abukadze et al., J. Biol. Chem. 273,17689-17695 (1998) or positions 45-294 from Choi et al., Am. J. Physiol. Cell Physiol. 276, C576-C584 (1999) replace positions 150-270 from Burnham et al. (see above.), J. Biol. Chem. 272, 19 111-19 114 (1997). The product of the PCR reaction was first cloned into the vector pCR2.1 and, after verification of the sequence, cloned into the cDNA of the kidney form of NBC1 by means of cleavage sites introduced by means of the PCR reaction. The construct obtained was checked for correct incorporation of the human heart NBC1-cDNA by sequencing. The plasmids obtained for the heart form of human NBC1 were transfected by means of the LipofectAmine™ reagent of the company LifeTechnologies (Gaithersburg, Md., USA) into the cell line CHO K1 (ovary cells of the Chinese hamster), which has no measurable NBC activity. After selection for transfected cells by means of growth in G418-containing medium (only cells which have obtained a neo gene by transfection can survive under these conditions), individual cells were isolated and cultured. Using the test described below, cell clones were identified in FLIPR which have a clear NBC activity. The best cell lines were used for the further tests and, to avoid a loss of the transfected sequence, cultured in G418-containing medium under continuous selection pressure.
For the determination of the inhibitory activity of the active compounds on the heart form of human NBC 1, a test was constructed which represents a further development of the assay constructed for the testing of inhibitors of NCBE (Na^+dependent Cl^−/HCO3− exchanger) (EP 0 903 339) based on the acid load method (Sardet et al., Cell 56, 271-280 (1989); Faber et al., Cell. Physiol. Biochem. 6, 39-49 (1996). In this test, the recovery of the intracellular pH (pHi) after prior acidification is determined under conditions in which the NBC is active, the other pHiregulating systems of the CHO cells such as NHE (Na^+/H^+ exchanger) and NCBE (Na^+-dependent Cl^−/HCO3− exchanger) are blocked, however, by specific inhibitors. In this way, it is ensured that the recovery of the intracellular pH observed is based on the activity of NBC1.
The transfected cells were inoculated into 96 well microtiter plates in a density of about 15,000 cells/well in 200 μl of growth medium and incubated overnight at 37° C. in a CO2 incubator. The intracellular pH of the transfected cells was determined using the pH-sensitive fluorescent dye BCECF (Molecular Probes (Eugene, Oreg., USA), the precursor BCECF-AM is employed). The cells were first loaded with BCECF-AM. The growth medium of the cells inoculated on the day before was manually removed, since the fetal calf serum present in the medium could interfere with the BCECF staining. For staining, 100 μl of NH4Cl stain buffer (20 mM NH4Cl, 115 mM NaCl, 1 mM MgSO4, 1 mM CaCl2, 5 mM KCl, 20 mMHEPES, 5 mM glucose; pH adjusted to 7.4 using 1 M NaOH) was added to the cells of each well, which contains 5 μM BCECF-AM. The cells were incubated with the stain solution at 37° C. in a CO2 incubator for 20 minutes. […]

Row | Compound | residual activity [%] at 10 μM
2 | 4-Chloro-5-[(5-methylfuran-2-ylmethyl)sulfamoyl]-2-phenylbutylaminobenzoic acid [Example 15] | 79%
3 | O=C(O)c1cc(S(=O)(=O)NCc2cccc(Cl)c2Cl)c(Cl)cc1NCCCCc1ccccc1 [Example 12, 4-Chloro-2-phenylbutylamino-5-(2,3-dichlorobenzylsulfamoyl)benzoic acid] | 37%
4 | CCc1ccc(NS(=O)(=O)c2cc(C(=O)O)c(NCCCCc3ccccc3)cc2Cl)cc1 [Example 18, 4-Chloro-5-(4-ethylphenylsulfamoyl)-2-phenylbutylaminobenzoic acid] | 79%
5 | CC(C)CNS(=O)(=O)c1cc(C(=O)O)c(NCCCCc2ccccc2)cc1Cl [Example 21, 4-Chloro-5-(isobutylsulfamoyl)-2-phenylbutylaminobenzoic acid] | 94%
6 | O=C(O)c1cc(S(=O)(=O)NCCc2ccc(Cl)cc2)c(Cl)cc1NCCCCc1ccccc1 [Example 16, 4-Chloro-5-[2-(4-chlorophenyl)ethylsulfamoyl]-2-phenylbutylaminobenzoic acid] | 91%
7 | O=C(O)c1cc(S(=O)(=O)NCc2ccc(F)c(Cl)c2)c(Cl)cc1NCCCCc1ccccc1 [Example 1, 4-Chloro-5-(3-chloro-4-fluorobenzylsulfamoyl)-2-phenylbutylaminobenzoic acid] | 46%
8 | 4-Chloro-5-(phenylbutylsulfamoyl)-2-phenylbutylaminobenzoic Acid [Example 19] | 77%
9 | 4-Chloro-5-(cyclohexylmethylsulfamoyl)-2-phenylbutylaminobenzoic acid [Example 20] | 89%
10 | O=C(O)c1cc(S(=O)(=O)NCc2ccncc2)c(Cl)cc1NCCCCc1ccccc1 [Example 8, 4-Chloro-2-phenylbutylamino-5-[(pyridin-4-ylmethyl)sulfamoyl]benzoic acid] | 89%
11 | 4-(4-Methylphenyl)-5-(3-chloro-4-fluorobenzylsulfamoyl)-2-phenylbutylaminobenzoic acid [Example 7] | 95%
12 | O=C(O)c1cc(S(=O)(=O)NCc2cccc(Cl)c2)c(Cl)cc1NCCCCc1ccccc1 [Example 10, 4-Chloro-2-phenylbutylamino-5-(3-chlorobenzylsulfamoyl)benzoic Acid] | 75%
13 | O=C(O)c1cc(S(=O)(=O)NCc2ccc(F)c(Cl)c2)ccc1NCCCCc1ccccc1 [Example 3, 5-(3-Chloro-4-fluorobenzylsulfamoyl)-2-phenylbutylaminobenzoic acid] | 88%
14 | NS(=O)(=O)c1ccc(CNS(=O)(=O)c2cc(C(=O)O)c(NCCCCc3ccccc3)cc2Cl)cc1 [Example 11, 4-Chloro-2-phenylbutylamino-5-(4-sulfamoylbenzylsulfamoyl)benzoic acid] | 81%
15 | Cc1cc(NCCCCc2ccccc2)c(C(=O)O)cc1S(=O)(=O)NCc1ccc(F)c(Cl)c1 [Example 4, 4-Methyl-5-(3-chloro-4-fluorobenzylsulfamoyl)-2-phenylbutylaminobenzoic acid] | 54%
16 | O=C(O)c1cc(S(=O)(=O)NCc2ccc(Cl)cc2Cl)c(Cl)cc1NCCCCc1ccccc1 [Example 13, 4-Chloro-2-phenylbutylamino-5-(2,4-dichlorobenzylsulfamoyl)benzoic acid] | 60%
17 | CC(C)c1cc(NCCCCc2ccccc2)c(C(=O)O)cc1S(=O)(=O)NCc1ccc(F)c(Cl)c1 [Example 5, 4-isopropyl-5-(3-chloro-4-fluorobenzylsulfamoyl)-2-phenylbutylaminobenzoic acid] | 78%
18 | O=C(O)c1cc(S(=O)(=O)NCc2c(F)cccc2Cl)c(Cl)cc1NCCCCc1ccccc1 [Example 14, 4-Chloro-2-phenylbutylamino-5-(2-chloro-6-fluorobenzylsulfamoyl)benzoic acid] | 87%
19 | CCCc1cc(NCCCCc2ccccc2)c(C(=O)O)cc1S(=O)(=O)NCc1ccc(F)c(Cl)c1 [Example 6, 4-n-Propyl-5-(3-chloro-4-fluorobenzylsulfamoyl)-2-phenylbutylaminobenzoic acid] | 69%
20 | O=C(O)c1cc(S(=O)(=O)NCCc2cccs2)c(Cl)cc1NCCCCc1ccccc1 [Example 17, 4-Chloro-2-phenylbutylamino-5-(2-thiophen-2-ylethylsulfamoyl)benzoic acid] | 95%
21 | O=C(O)c1cc(S(=O)(=O)NCc2ccccn2)c(Cl)cc1NCCCCc1ccccc1 [Example 9, 4-Chloro-2-phenylbutylamino-5-[(pyridin-2-ylmethyl)sulfamoyl]benzoic acid] | 89%
22 | O=C(O)c1cc(S(=O)(=O)NCc2ccc(F)c(Cl)c2)c(Br)cc1NCCCCc1ccccc1 [Example 2, 4-Bromo-5-(3-chloro-4-fluorobenzylsulfamoyl)-2-phenylbutylaminobenzoic acid] | 56%
